The results in this text go back to patent US6593335B1, “Potassium channel openers” (Abbott Laboratories, priority 1997, dated 2003).

Series [1] has as its target potassium channels (Sus scrofa, UniProt F1SR11). Put plainly: Functional potassium channel opening activity in isolated Landrace pig bladder strips (field-stimulated twitch). The settings on record: for Landrace Pig Bladder Index: ED50 for P1075 divided by ED50 for the test agonist, averaged over tissues; for Landrace Pig Bladder pD2: negative logarithm of ED50; for Emax: pig, maximal efficacy relative to P1075, field stimulation 0.05Hz, 0.5 milli-seconds at 20 volts. How it is done: The entire bladder was removed and ed into Krebs Ringer bicarbonate solution (composition, mM: NaCl,; dextrose, 1; KCl, 4.7; […] Propranolol (0.004 ed in all of the assays to block […]. The trigonal and dome […]. Strips 3-5 mm wide and 20 mm long were prepared from the cut in a circular fashion. The mucosal layer was removed. One end ationary glass rod and the other to a Grass FT03 transducer at a basal am. Two parallel platinum electrodes were included in the stationary ide field stimulation of 0.05Hz, 0.5 milli-seconds at 20 volts. […] Tissues were allowed to equilibrate for at least 60 minutes and primed with 80 mM KCl. A control concentration response curve (cumulative) was generated for each tissue using the potassium channel opener […] as the control agonist. […] After a 60 minute rinsing period, a concentration response curve (cumulative) was generated for the test agonist in the same fashion as that used for the control agonist […]. The maximal efficacy of each compound (expressed as % relative to […]) is reported. […] J. Physiol. 235, E97 (1980)), and agonist potencies were expressed as pD2 (the negative logarithm). Agonist potencies were also expressed as an index relative to […]. The index was calculated by dividing the ED50 for […] by the ED50 for the test agonist in a given tissue. Each tissue was used for only one test agonist, and the indices obtained from each tissue were averaged to provide an average index of potency.

SMILES strings stand for the structures.

Consider `O=C1CCC2=C1C(c1ccc(Cl)c(Cl)c1)C1=C(CCS1(=O)=O)N2` (single isomer, unassigned) [Example 145], for which the melting point is greater than 250 °C.
Regarding `O=C1CCC2=C1C(c1ccc(Cl)c([N+](=O)[O-])c1)C1=C(CCS1(=O)=O)N2` (single isomer, unassigned) [Example 160], the melting point was greater than 250 °C.
For the compound `O=C1CCCC2=C1C(c1ccc(F)c(C(F)(F)F)c1)C1=C(CCS1(=O)=O)N2` (single isomer, unassigned; (+)) [Example 138, (+)-9-[4-fluoro-3-(trifluoromethyl)phenyl]-2,3,5,6,7,9-hexahydrothieno[3,2-b]quinolin-8(4H)-one, 1,1-dioxide], the melting point was greater than 250 °C.
`N#Cc1cccc(C2C3=C(CCC3=O)NC3=C2S(=O)(=O)CC3)c1` (single isomer, unassigned; (-)) [Example 162] came in with a melting point greater than 250 °C.
`O=C1CCC2=C1C(c1cccc([N+](=O)[O-])c1)C1=C(CCCS1(=O)=O)N2` (stereo not shown) [Example 55, 3,4,5,6,7,9-hexahydro-9-(3-nitrophenyl)cyclopenta[b]thiopyrano [2,3-e]pyridin-8(2H)-one, 1,1-dioxide] returned a melting point greater than 260 °C.
On the same count and under the same terms, under `O=[N+]([O-])c1cccc(C2C3=C(CCCS3(=O)=O)NC3=C2S(=O)(=O)CCC3)c1` [Example 59, 3,4,6,7,8,10-hexahydro-10-(3-nitrophenyl)-2H,5H-dithiopyrano [3.2-b:2′,3′-e]pyridine, 1,1,9,9-tetraoxide] stands greater than 260 °C; under `N#Cc1cccc(C2C3=C(CCS3(=O)=O)NC3=C2S(=O)(=O)CC3)c1` [Example 62, 8-(3-cyanophenyl)-2,3,4,5,6,8-hexahydrodithieno [3.2-b:2′,3′-e]pyridine. 1,1,7,7-tetraoxide], 248 °C; under `O=C1CCC2=C1C(c1cccc(Br)c1)C1=C(CCS1(=O)=O)N2` (stereo not shown) [Example 64, 8-(3-bromophenyl)-2,3,4,5,6,8-hexahydro-7H-cyclopenta[b]thieno [2,3-e]pyridin-7-one, 1,1-dioxide], 246 °C.
For `O=C1CCC2=C1C(c1cc(Br)cs1)C1=C(CCS1(=O)=O)N2` (stereo not shown) [Example 67], the melting point was 254 to 255 °C.
On to `O=C1CCC2=C1C(c1ccc(Br)s1)C1=C(CCS1(=O)=O)N2` (stereo not shown) [Example 68], for which the melting point was 246 to 247 °C.
Take `O=C1CCC2=C1C(c1ccc(Br)c(Br)c1)C1=C(CCS1(=O)=O)N2` (stereo not shown) [Example 72]: in series [1], the “Landrace Pig Bladder Index” value worked out at 0.53, the “Landrace Pig Bladder pD2” value was 6.6 and the Emax amounted to 97%.
Turning to `CC1=C(S(C)(=O)=O)C(c2ccc(Cl)c(Cl)c2)C2=C(CCC2=O)N1` (stereo not shown) [Example 75, 4-(3,4-dichlorophenyl)-1,4,6,7-tetrahydro-2-methyl-3-(methylsulfonyl)-5H-cyclopentafblpyridin-5-one], the melting point is 218 to 220 °C.
`CC1=C(S(C)(=O)=O)C(c2ccc(Cl)c([N+](=O)[O-])c2)C2=C(CCC2=O)N1` (stereo not shown) [Example 76, 4-(4-chloro-3-nitrophenyl)-1,4,6,7-tetrahydro-2-methyl-3-,(methylsulfonyl)-5H-cyclopenta[b]pyridin-5-one]: the melting point was 232 °C.
On to `O=C1CCC2=C1C(c1ccc(Br)cc1)C1=C(CCS1(=O)=O)N2` (stereo not shown) [Example 78], for which the melting point was in the range of 253 to 256 °C.
`O=C1CCC2=C1C(c1ccc(F)c(F)c1)C1=C(CCS1(=O)=O)N2` (stereo not shown) [Example 79] showed a melting point greater than 260 °C.
`O=C1CCC2=C1C(c1ccc(Cl)c(F)c1)C1=C(CCS1(=O)=O)N2` (stereo not shown) [Example 80] registered a melting point greater than 260 °C.
`N#Cc1cc(C2C3=C(CCS3(=O)=O)NC3=C2S(=O)(=O)CC3)ccc1F` [Example 82]: the melting point was 275 to 280 °C (dec.).
Take `O=C1CCCC2=C1[C@@H](c1ccc(F)c(Br)c1)C1=C(CCS1(=O)=O)N2` [Example 83, (+)-(9R)-9-(3-bromo-4-fluorophenyl)-2,3,5,6,7,9-hexahydrothieno [3.2-b]guinolin-8(4H)-one, 1,1-dioxide]: in series [1], the “Landrace Pig Bladder Index” value is 0.57, the “Landrace Pig Bladder pD2” value was 7.0 and the Emax was 100%.
Turning to `O=C1CCCC2=C1[C@H](c1ccc(F)c(Br)c1)C1=C(CCS1(=O)=O)N2` [Example 84, (−)-(9S)-9-(3-bromo-4-fluorophenyl)-2,3,5,6,7,9-hexahydrothieno [3,2-b]quinolin-8(4H)-one, 1,1-dioxide], in series [1], the “Landrace Pig Bladder Index” value amounted to 0.69, the “Landrace Pig Bladder pD2” value was determined as 6.8 and the Emax came out at 100%.
`O=C1CCCC2=C1C(c1ccc(F)c(I)c1)C1=C(CCS1(=O)=O)N2` (stereo not shown) [Example 89, 9-(4-fluoro-3-iodophenyl)-2,3,5,6,7,9-hexahydrothieno [3.2-b]quinolin-8(4H)-one, 1,1-dioxide] came in with a melting point greater than 250 °C.
In turn, `O=C1CCC2=C1C(c1ccc(F)c(I)c1)C1=C(CCS1(=O)=O)N2` (stereo not shown) [Example 90] gave a melting point greater than 250 °C.
`O=C1CCCC2=C1C(c1cc(Br)ccc1O)C1=C(CCS1(=O)=O)N2` (stereo not shown) [Example 108, 9-(5-bromo-2-hydroxyphenyl)-2,3,5,6,7,9-hexahydrothieno[3,2-b]quinolin-8(4H)-one 1,1-dioxide]: in series [1], the “Landrace Pig Bladder Index” value is reported as 0.075, the “Landrace Pig Bladder pD2” value is recorded as 4.7 and the Emax worked out at 98%.
The compound `Cc1cc(C2C3=C(CCCC3=O)NC3=C2S(=O)(=O)CC3)ccc1F` (stereo not shown) [Example 111, 9-(4-fluoro-3-methylphenyl)-2,3,5,6,7,9-hexahydrothieno[3,2-b]quinolin-8(4H)-one, 1,1-dioxide] returned a melting point greater than 260 °C.
Regarding `O=S1(=O)CCC2=C1C(c1ccc(F)c(Br)c1)C=C(C(F)(F)F)N2` (stereo not shown) [Example 112, 7-(3-bromo-4-fluorophenyl)-5-(trifluoromethyl)-2,3,4,7-tetrahydrothieno [3,2-b]pyridine. 1,1-dioxide], in series [1], the “Landrace Pig Bladder Index” value amounted to 0.032, the “Landrace Pig Bladder pD2” value came to 5.7 and the Emax was determined as 99%.
On to `O=C1CCCC2=C1C(c1cccnc1)C1=C(CCS1(=O)=O)N2` (stereo not shown) [Example 117, 9-(3-pyridinyl)-2,3,5,6,7,9-hexahydrothieno[3,2-b]quinolin-8(4H)-one, 1,1-dioxide], for which the melting point was greater than 250 °C.
`O=C1CCCC2=C1C(c1ccncc1)C1=C(CCS1(=O)=O)N2` (stereo not shown) [Example 118, 9-(4-pyridinyl)-2,3.5,6,7,9-hexahydrothieno[3,2-b]quinolin-8(4H)-one, 1,1-dioxide]: the melting point was greater than 250 °C.
On the same count and under the same terms, under `O=C1CCCC2=C1C(c1cc(Cl)ccc1O)C1=C(CCS1(=O)=O)N2` (stereo not shown) [Example 120, 9-(5-chloro-2-hydroxyphenyl)-2,3,5,6,7,,9-hexahydrothieno[3 .2-b]guinolin-8(4H)-one, 1. I -dioxide] stands greater than 250 °C.
On to `O=C1CCCC2=C1C(c1cc(Br)c(F)cc1O)C1=C(CCS1(=O)=O)N2` (stereo not shown) [Example 121, 9-(5-bromo-4-fluoro-2-hydroxyphenyl)-2.35,6,7,9-hexahydrothieno[3.2-b]quinolin-8(4H)-one, 1,1-dioxide], for which, in series [1], the “Landrace Pig Bladder Index” value amounted to 0.078, the “Landrace Pig Bladder pD2” value was 6.2 and the Emax stood at 100%.

The melting point is the temperature of the solid-liquid transition. The Emax is the maximal effect, on the per cent scale that the assay sets.
